No end group written: not given here. *: point of attachment. Biotin = O=C1N[C@H]2[C@H](CS[C@H]2CCCCC(=O)*)N1
Columns and labels:
[1] = tested on: bilabeled fluorescent probe sequence; settings: human EBV-transformed B lymphoid cell line, biotinylated W6/32, streptavidin bridge
Protocol: Following incubation of cells (10^6/ml) with a biotin conjugate of primary antibody pan-specific for human Class I (W6/32) and washing in phosphate-buffered saline (pH 7.2; PBS), the cell preparation was treated with a large excess of unmodified tetravalent streptavidin (Sigma; 10 μl each of 100 μM streptavidin per 100 μl of cells at 10^6/ml) for 30 minutes at room temperature, and rewashed in PBS.
Following this, a biotinylated template oligonucleotide was added, such that its terminal biotin group becomes bound to free sites on the surface streptavidin. […] The DNA template sequence used in this example corresponds to a transcribed segment of human papillomavirus (HPV), of sequence: 5′-Biotin-[sequence] […] As a control, a scrambled version of this sequence was used: 5′ Biotin-[sequence]

trastuzumab [2] = assay: ELISA of biotinylated mimotope peptides on streptavidin plates titrated with trastuzumab; format: binding; settings: 400 nM biotinylated peptide coating, trastuzumab 2-fold serial dilutions
Protocol: For intact mimotopes and their analogs, peptides with an N-terminal biotin label and a flexible spacer composed of serine and glycine residues (typically […]; SEQ ID NO:110) were used.
ELISA plates coated with tetravalent streptavidin were obtained for the assay, either from a commercial source (such as Thermofisher) or made by incubating polystyrene 96-well ELISA plates with solutions of streptavidin in PBS (1 μM) 16 hours/4° C., followed by blocking with a solution of bovine serum albumin (BSA) at 10 mg/ml in PBS pH 7.2, also for 16 hours/4° C. Plates were then emptied of solutions and washed three times with 100 μl PBS containing 0.05% Tween 20 (PBS-Tw20).
A suitable dilution series of the biotinylated peptides of interest was prepared in PBS, and at least duplicates (or higher numbers of replicates) were added to pre-designated wells in 100 μl volumes, and the plate incubated for 2 hours at room temperature (covered in Saran wrap). […] After a 30 minute incubation, reactions were stopped with 1 M sulfuric acid, and results assessed with an automated plate reader for absorbances at 450 nm. Final data was compiled from averaged replicates for each determination with subtraction of absorbances observed in wells where no target peptide antigen was added. […]

trastuzumab [3] = assay: Flow analysis of trastuzumab mimotope placed on HER-2-negative MU89 cells via streptavidin bridge; format: cell-based; settings: MU89 melanoma cells, W6/32 biotinylated primary antibody, fluoresceinated goat anti-kappa read-out
Excerpt: In common with Example 11, for the repurposing of an antibody epitope by placement of a peptide mimotope on a cell surface, a surface marker for the cell type of interest was defined. […] The complex (biotinylated template-streptavidin-primary antibody) was then assembled on MU89 surface. Following that procedure and washing, biotinylated mimotope (Biotin-[…] ELWELSH; SEQ ID NO:35) was allowed to bind to the surface streptavidin. […] Subsequently, since trastuzumab is a humanized antibody with kappa light chains, a fluoresceinated goat anti-kappa antibody served to provide the final fluorescent read-out enabling flow analysis. […] However, it should be noted that while an amplification effect for fluorescent signal results from the multi-layered sandwich technique of this approach, the overall signal is ultimately linked to the level of expression of the primary antibody target.

trastuzumab [4] = settings: L1 Q substitution; cited from earlier work
[5] = tested on: biotinylated anti-BRD7 Fab (bFab); assay: Direct Binding Assay using streptavidin magnetic beads, denaturing gel read-out; parameters: species or system murine; settings: with vs without bFab, PBSM
Protocol: Aptamers were incubated with bFab (2.5-fold molar excess), then bound to SAMBs. Supernatants were taken, and the SAMBs washed 3 times. Bound material was eluted with 0.1 M NaOH, and then precipitated, washed, dried, and reconstituted before loading samples on a denaturing acrylamide gel.
To assess binding of 10th-cycle singlet aptamers to the selective agent (the Fab target), direct binding assays were carried out. Here, single-stranded aptamer preparations (self-annealed as usual) were incubated with or without biotinylated Fab fragments in PBSM, followed by adsorption onto streptavidin magnetic beads. After this incubation period, the beads were magnetically separated, and the supernatants retained. […]
Despite successful in situ assembly of binary aptamers upon the target to which they were bound (as in Example 1), it could not be assumed that binary aptamers formed in solution would be capable of binding the same targets. This was assessed using the same aptamers as used in direct binding tests (Example 3; 228/10AptR1 and 229/10AptL3), but where the aptamers were initially ligated together by means of the same splint oligonucleotide as used in Example 1. […]

Molecule: 5′ Biotin-TAGCGCAAATAAGCCGCCAGAAC GATGATATAAACAGCATTAGGTAAGCTACAACA [control scrambled sequence, reference compound]
- fluorescence signal of bilabeled probe hybridized to surface template [1]: not

Molecule: 5′-Biotin-TAACTGTCAAAAGCCACTGTGTC CTGAAGAAAAGCAAAGACATCTGGACAAAAAGC
- fluorescence signal of bilabeled probe hybridized to surface template [1]: significant signal

Molecule: Bio-SGGGSGGGQLGPYELWEL CH (Biotin-SGGGSGGGQLGPYELWELCH) [cysteine-modified mimotope]
- recognition by Trastuzumab compared with the unmodified mimotope (trastuzumab [2]): almost the same extent
- slope of trastuzumab titration curve, less than that seen for the unmodified peptide (trastuzumab [2]): approximately 10%

Molecule: Bio-SGGGSGGGQLGPYELWELSH (Biotin-SGGGSGGGQLGPYELWELSH) [unmodified mimotope]
- fluorescent signal from trastuzumab (trastuzumab [3]): clear-cut fluorescent signal

Molecule: QLGPYEL WELSH (QLGPYELWELSH; segment of the mimotope) [mimotope for trastuzumab]
- binding affinity relative to the initial mimotope LLGPYELWEL SH (trastuzumab [4]): higher binding affinity

B1: GCAAAGACATCTGGACA CGCCACTTATAGTCTACGTGAAGCACTGCGCTGGAACAGCCTAAAAAAGGAGAAGG AGACTTAGAGGC (nucleic acid)
DNA: GCAAAGACATCTGGACACGCCACTTATAGTCTACGTGAAGCACTGCGCTGGAACAGCCTAAAAAAGGAGAAGGAGACTTAGAGGC
modifications: chemistry not given here
- binding to biotinylated Fab (bound material eluted from streptavidin magnetic beads) [5]: not

Reference: patent publication US20200247851A1, “Methods For Generating Epitopes For Binding To Recognition Molecules By Templated Assembly” (TriBiotica LLC, priority 2017, published 2020)
